Assay [1] addresses T1, Cx36 (Homo sapiens, UniProt Q9UKL4).
T1 construct: gene GJD2; purified in detergent; gap junction channel of docked hexameric hemichannels
T1 sequence (Q9UKL4 1-321): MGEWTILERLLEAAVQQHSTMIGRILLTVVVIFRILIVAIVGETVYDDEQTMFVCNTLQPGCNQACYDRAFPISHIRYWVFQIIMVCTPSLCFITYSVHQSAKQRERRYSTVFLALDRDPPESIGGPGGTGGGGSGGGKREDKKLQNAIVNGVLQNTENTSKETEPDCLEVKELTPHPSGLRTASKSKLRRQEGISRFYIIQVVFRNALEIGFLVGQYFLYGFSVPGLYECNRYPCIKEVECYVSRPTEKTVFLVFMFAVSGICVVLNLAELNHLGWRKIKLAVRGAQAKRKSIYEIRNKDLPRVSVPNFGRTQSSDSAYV
In words: ligand binding assay with purified Cx36.

Assay [2] deals with T1, Cx36. In words: cryo-EM structure of the complex. Format: binding. Conditions: detergent, pore pocket between TM1 and TM2 at interface of two monomers.

On to `C=C[C@H]1CN2CC[C@H]1C[C@H]2[C@H](O)c1ccnc2ccc(OC)cc12` [quinine], for which, on Cx36 [1], binding was characterised by a dissociation constant (Kd) of 29 ± 5.3 µM. Moreover, the “cryo-EM structure of the complex” value on Cx36 [2] (1 mM drug) was “Cx36–quin, and Cx36–quid feature additional densities, corresponding to six bound drugs per Cx36 hexamer”.

Compound `OC(c1cc(C(F)(F)F)nc2c(C(F)(F)F)cccc12)C1CCCCN1` (racemic) [mefloquine] gave a Kd at Cx36 [1] of 10.4 ± 1.3 µM. Moreover, the “cryo-EM structure of the complex” value on Cx36 [2] (1 mM racemic drug) was “although we used a racemic mixture of the drug, the high-resolution structure captured the S/R-enantiomer”.

Take `C=C[C@H]1CN2CC[C@H]1C[C@@H]2[C@@H](O)c1ccnc2ccc(OC)cc12` [quinidine]: the Kd on Cx36 [1] turned out to be 58 ± 9 µM. Also, the “cryo-EM structure of the complex” value on Cx36 [2] (1 mM drug) is “Cx36–quin, and Cx36–quid feature additional densities, corresponding to six bound drugs per Cx36 hexamer”.

For the origin of these results see article PMC11189382, “Structural basis of connexin-36 gap junction channel inhibition” (Cell Discovery, 2024).
